The text below walks through data of patent publication EP0075139A1 (priority 1981, dated 1983).

The structures appear in SMILES notation.

For one test, the system named is Plasmopara viticola. The experiment in a line: Efficacy against Plasmopara viticola on potted vine leaves (protective spray, greenhouse). It counts as in vivo. The following applies: 0,025 %ige Spritzbrühe; potted vines "Müller-Thurgau"; infected 10 days after spraying; value given as 'beispielsweise' (for example). From the text:
Wirksamkeit gegen Plasmopara viticola
Blätter von Topfreben der Sorte "Müller-Thurgau" werden mit wäßriger Spritzbrühe, die 80 % Wirkstoff und 20 % Emulgiermittel in der Trockensubstanz enthält, besprüht. Um die Wirkungsdauer der Wirkstoffe beurteilen zu können, werden die Pflanzen nach dem Antrocknen des Spritzbelages 10 Tage im Gewächshaus aufgestellt. Erst dann werden die Blätter mit einer Zoosporenaufschwemmung von Plasmopara viticola (Rebenperonospora) infiziert. Danach werden die Reben zunächst für 16 Stunden in einer wasserdampfgesättigten Kammer bei 24°C und anschließend für 8 Tage in einem Gewächshaus mit Temperaturen zwischen 20 und 30 C aufgestellt. Nach dieser Zeit werden die Pflanzen zur Beschleunigung des Sporangienträgerausbruchs abermals für 16 Stunden in der feuchten Kammer aufgestellt. Dann erfolgt die Beurteilung des Ausmaßes des Pilzausbruches auf den Blattunterseiten.
Das Ergebnis des Versuches zeigt, daß beispielsweise die Verbindungen Nr. 1, 2, 11 und 12 bei Anwendung als 0,025 %ige Spritzbrühe eine bessere fungizide Wirkung (beispielsweise 100 %) zeigen als der bekannte Wirkstoff A (beispielsweise 90 %).

Another test concerns Phytophthora infestans. It counts as in vivo. Particulars: 0,025 %ige Spritzbrühe; potted tomato "Große Fleischtomate"; assessed 5 days after infection; value given as 'beispielsweise' (for example).

Regarding `O=C1c2ccccc2C(=O)N1SC(Cl)(Cl)Cl` [Verbindung A, N-Trichlormethylthio-phthalimid], the “fungizide Wirkung” value with Plasmopara viticola is 90%. For `O=C1C2CC=CCC2C(=O)N1SC(Cl)(Cl)Cl` (stereo not drawn) [Verbindung B, N-Trichlormethylthio-tetrahydrophthalimid], the “fungizide Wirkung” value in the test on Phytophthora infestans was 70%. On the same count and under the same terms, under `S=C([S-])NCCNC(=S)[S-].[Zn+2]` [Verbindung C, Zink-ethylen-1,2-bis-dithiocarbamat] stands 70%.

Regarding `CC(=O)C(=O)N(c1c(C)ccc2ccccc12)C1CCOC1=O` (stereo not drawn) [Verbindung Nr. 1, N-(2-Methyl-1-naphthyl)-N-(alpha-butyro--gamma-lactonyl)-brenztraubensäure-amid], the “fungizide Wirkung” value turned out to be 100% in the test with Plasmopara viticola and 90% in the test on Phytophthora infestans. For `COC(=O)C(C)N(C(=O)C(C)=NOCc1c(Cl)cccc1Cl)c1c(C)cccc1C` (stereo not drawn) [Verbindung Nr. 22, N-(2,6-Dimethyl-phenyl)-N-[(1-methoxycarbonyl)-1-ethyl]-2-[O-(2,6-dichlor-benzyl)-oximino]-brenztraubensäure-amid], the “fungizide Wirkung” value with Phytophthora infestans is listed as 90%.
